Assay results taken from patent US8912216B2, “Hetaryl-[1,8]naphthyridine derivatives” (Merck Patent GmbH, priority 2010, dated 2014).

Assays:
GST-ALK5 = biological target: T1, GST-ALK5 (Homo sapiens, UniProt P36897); assay: In-vitro (enzyme) kinase assay, 384-well flashplate (Example 36); assay type: biochemical; settings: GST-ALK5, GST-SMAD2 substrate, 3 mM ATP, 30° C., 45 min; read-out: TβR activity (Example 36)
T1 sequence (P36897 34-503): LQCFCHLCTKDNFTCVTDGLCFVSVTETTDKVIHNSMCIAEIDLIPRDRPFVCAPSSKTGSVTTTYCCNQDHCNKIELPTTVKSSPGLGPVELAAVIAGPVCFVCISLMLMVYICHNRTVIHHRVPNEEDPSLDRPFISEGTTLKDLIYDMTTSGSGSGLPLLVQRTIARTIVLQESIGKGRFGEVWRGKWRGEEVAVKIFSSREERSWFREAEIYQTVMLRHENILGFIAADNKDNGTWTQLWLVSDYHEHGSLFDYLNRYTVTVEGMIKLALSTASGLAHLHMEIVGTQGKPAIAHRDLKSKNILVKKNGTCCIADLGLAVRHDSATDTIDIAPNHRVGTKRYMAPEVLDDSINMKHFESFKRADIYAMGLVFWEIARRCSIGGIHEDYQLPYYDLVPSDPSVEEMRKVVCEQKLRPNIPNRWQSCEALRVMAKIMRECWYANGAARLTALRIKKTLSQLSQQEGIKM
Method in brief: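 Radiometric flashplate assay: 31.2 nM GST-ALK5 phosphorylating 439 nM GST-SMAD2 with 3 mM ATP plus ³³P-ATP, in HEPES/MgCl2/MnCl2/DTT/BSA buffer pH 7.4, 45 min at 30 °C, 5-10 compound concentrations. EDTA stop, filtration and washing, then radioactivity counted; IC50 derived from the curve.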

[1] = system: TGF-beta-induced phosphorylation of Smad2 and Smad3 in Mv1-Lu cells; assay: Inhibition of Smad2/3 phosphorylation in Mv1Lu cells (Example 35A); assay type: cell-based, mink Mustela vison; settings: Neogale vison, Mv1-Lu cells, TGF-beta 1 5 ng/ml, phospho-Smad2/3 ELISA, read-out: TβR activity (Example 35A)
Method in brief: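 Serum-starved (16-20 h) Mv1-Lu mink lung epithelial cells were pre-incubated 1.5 h with compound dilutions (0.2% DMSO), then stimulated 1 h with 5 ng/ml TGF-beta 1. Phospho-Smad2 (Ser465/467)/Smad3 (Ser423/425) in lysates was measured by ELISA. IC50 came from dose-response fits between stimulated and unstimulated controls.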

Structure (SMILES)	IC50 (GST-ALK5) [nM]	IC50 [1] [nM]
CC1(C)CC(=O)Nc2ccc(-c3cncc(-c4cc(-c5cc(Cl)ccc5F)nc5ncccc45)c3)cc21 [compound 157, 6-{5-[2-(5-Chloro-2-fluoro-phenyl)-[1,8]naphthyridin-4-yl]-pyridin-3-yl}-4,4-dimethyl-3,4-dihydro-1H-quinolin-2-one]	100 to 1000	100 to 1000
Fc1ccc(Cl)cc1-c1cc(-c2cncc(-c3cccc(OCCN4CCCC4)c3)c2)c2cccnc2n1 [compound 158, 2-(5-Chloro-2-fluoro-phenyl)-4-{5-[3-(2-pyrrolidin-1-yl-ethoxy)-phenyl]-pyridin-3-yl}-[1,8]naphthyridine]	< 100	< 100
N#Cc1cccc(-c2cncc(-c3cc(-c4cc(Cl)ccc4F)nc4ncccc34)c2)n1 [compound 160, 5′-[2-(5-Chloro-2-fluoro-phenyl)-[1,8]naphthyridin-4-yl]-[2,3′]bipyridinyl-6-carbonitrile]	> 10000	> 10000
CC(=O)N1CCc2cc(-c3cncc(-c4cc(-c5cc(Cl)ccc5F)nc5ncccc45)c3)ccc21 [compound 164, 1-(5-{5-[2-(5-Chloro-2-fluoro-phenyl)-[1,8]naphthyridin-4-yl]-pyridin-3-yl}-2,3-dihydro-indol-1-yl)-ethanone]	< 100	< 100
O=C1CCc2cc(-c3cncc(-c4cc(-c5cc(Cl)ccc5F)nc5ncccc45)c3)cnc2N1 [compound 165, 6-{5-[2-(5-Chloro-2-fluoro-phenyl)-[1,8]naphthyridin-4-yl]-pyridin-3-yl}-3,4-dihydro-1H-[1,8]naphthyridin-2-one]	< 100	< 100
NCCc1cccc(-c2cncc(-c3cc(-c4cc(Cl)ccc4F)nc4ncccc34)c2)c1 [compound 166, 2-(3-{5-[2-(5-Chloro-2-fluoro-phenyl)-[1,8]naphthyridin-4-yl]-pyridin-3-yl}-phenyl)-ethylamine]	< 100	< 100
Nc1ncc(-c2cc(-c3cc(Cl)ccc3F)nc3ncccc23)c2ccncc12 [compound 167, 4-[2-(5-Chloro-2-fluoro-phenyl)-[1,8]naphthyridin-4-yl]-[2,7]naphthyridin-1-ylamine]	< 100	< 100
Fc1ccc(Cl)cc1-c1cc(-c2cncc(-c3cccc4c3CCNC4)c2)c2cccnc2n1 [compound 168, 2-(5-Chloro-2-fluoro-phenyl)-4-[5-(1,2,3,4-tetrahydro-isoquinolin-5-yl)-pyridin-3-yl]-[1,8]naphthyridine]	1000 to 10000	1000 to 10000
OCCN(CCO)c1cccc(-c2cncc(-c3cc(-c4cc(Cl)ccc4F)nc4ncccc34)c2)n1 [compound 170, 2-[{5′-[2-(5-Chloro-2-fluoro-phenyl)-[1,8]naphthyridin-4-yl]-[2,3′]bipyridinyl-6-yl}-(2-hydroxy-ethyl)amino]-ethanol]	< 100	100 to 1000
CN1CCN(c2cncc(-c3cncc(-c4cc(-c5cc(Cl)ccc5F)nc5ncccc45)c3)c2)CC1 [compound 171, 2-(5-Chloro-2-fluoro-phenyl)-4-[5′-(4-methyl-piperazin-1-yl)-[3,3′]bipyridinyl-5 yl]-[1,8]naphthyridine]	< 100	< 100
Fc1ccc(Cl)cc1-c1cc(-c2cncc(-c3ccc4c(c3)CNC4)c2)c2cccnc2n1 [compound 175, 2-(5-Chloro-2-fluoro-phenyl)-4-[5-(2,3-dihydro-1H-isoindol-5-yl)-pyridin-3-yl]-[1,8]naphthyridine]	< 100	< 100
CN(C)CCc1ccc(-c2cncc(-c3cc(-c4cc(F)ccc4F)nc4ncccc34)c2)cc1 [compound 177, [2-(4-{5-[2-(2,5-Difluoro-phenyl)-[1,8]naphthyridin-4-yl]-pyridin-3-yl}-phenyl)-ethyl]-dimethyl-amine]	< 100	< 100
CN(C)CCNC(=O)c1ccc(-c2cncc(-c3cc(-c4cc(Cl)ccc4F)nc4ncccc34)c2)cn1 [compound 178, 5′-[2-(5-Chloro-2-fluoro-phenyl)-[1,8]naphthyridin-4-yl]-[3,3′]bipyridinyl-6-carboxylic acid (2-dimethylamino-ethyl)-amide]	100 to 1000	100 to 1000
Fc1ccc(Cl)cc1-c1cc(-c2ccc(-c3ccccc3)nc2)c2cccnc2n1 [compound 5599, 2-(5-Chloro-2-fluoro-phenyl)-4-(6-phenyl-pyridin-3-yl)-[1,8]naphthyridine]	> 10000	> 10000

Next, values leading:

IC50 (GST-ALK5) [nM]	IC50 [1] [nM]	Structure (SMILES)
< 100	< 100	Fc1ccc(Cl)cc1-c1cc(-c2cncc(-c3ccc4c(c3)CCNC4)c2)c2cccnc2n1 [compound 155, 2-(5-Chloro-2-fluoro-phenyl)-4-[5-(1,2,3,4-tetrahydro-isoquinolin-6-yl)-pyridin-3-yl]-[1,8]naphthyridine]
< 100	< 100	Fc1ccc(Cl)cc1-c1cc(-c2cncc(-c3ccc(OCCN4CCCC4)cc3)c2)c2cccnc2n1 [compound 156, 2-(5-Chloro-2-fluoro-phenyl)-4-{5-[4-(2-pyrrolidin-1-yl-ethoxy)-phenyl]-pyridin-3-yl}-[1,8]naphthyridine]
< 100	100 to 1000	Fc1ccc(Cl)cc1-c1cc(-c2cncc(-c3cccc(C4CCNCC4)c3)c2)c2cccnc2n1 [compound 159, 2-(5-Chloro-2-fluoro-phenyl)-4-[5-(3-piperidin-4-yl-phenyl)-pyridin-3-yl]-[1,8]naphthyridine]
< 100	< 100	Fc1ccc(Cl)cc1-c1cc(-c2cncc(-c3ccc(OCCN4CCOCC4)cc3)c2)c2cccnc2n1 [compound 161, 2-(5-Chloro-2-fluoro-phenyl)-4-{5-[4-(2-morpholin-4-yl-ethoxy)-phenyl]-pyridin-3-yl}-[1,8]naphthyridine]
< 100	< 100	CN(C)CCc1ccc(-c2cncc(-c3cc(-c4cc(Cl)ccc4F)nc4ncccc34)c2)cc1 [compound 162, [2-(4-{5-[2-(5-Chloro-2-fluoro-phenyl)-[1,8]naphthyridin-4-yl]-pyridin-3-yl}-phenyl)-ethyl]-dimethyl-amine]
< 100	< 100	CN1CCc2ccc(-c3cncc(-c4cc(-c5cc(Cl)ccc5F)nc5ncccc45)c3)cc2C1 [compound 163, 2-(5-Chloro-2-fluoro-phenyl)-4-[5-(2-methyl-1,2,3,4-tetrahydro-isoquinolin-7-yl)-pyridin-3-yl]-[1,8]naphthyridine]
< 100	100 to 1000	Nc1ccc(-c2cncc(-c3cc(-c4cc(Cl)ccc4F)nc4ncccc34)c2)cn1 [compound 169, 5′-[2-(5-Chloro-2-fluoro-phenyl)-[1,8]naphthyridin-4-yl]-[3,3′]bipyridinyl-6-ylamine]
< 100	< 100	Fc1ccc(Cl)cc1-c1cc(-c2cncc(-c3ccc(CCN4CCCC4)cc3)c2)c2cccnc2n1 [compound 172, 2-(5-Chloro-2-fluoro-phenyl)-4-{5-[4-(2-pyrrolidin-1-yl-ethyl)-phenyl]-pyridin-3-yl}-[1,8]naphthyridine]
< 100	< 100	CCN1CCc2ccc(-c3cncc(-c4cc(-c5cc(Cl)ccc5F)nc5ncccc45)c3)cc2C1 [compound 173, 2-(5-Chloro-2-fluoro-phenyl)-4-[5-(2-ethyl-1,2,3,4-tetrahydro-isoquinolin-7-yl)-pyridin-3-yl]-[1,8]naphthyridine]
< 100	< 100	CC(C)N1CCC(c2ccc(-c3cncc(-c4cc(-c5cc(Cl)ccc5F)nc5ncccc45)c3)cc2)CC1 [compound 174, 2-(5-Chloro-2-fluoro-phenyl)-4-{5-[4-(1-isopropyl-piperidin-4-yl)-phenyl]-pyridin-3-yl}-[1,8]naphthyridine]
< 100	< 100	CC(C)N1CCc2ccc(-c3cncc(-c4cc(-c5cc(Cl)ccc5F)nc5ncccc45)c3)cc2C1 [compound 176, 2-(5-Chloro-2-fluoro-phenyl)-4-[5-(2-isopropyl-1,2,3,4-tetrahydro-isoquinolin-7-yl)-pyridin-3-yl]-[1,8]naphthyridine]
